In PMC11728000, “Antitumor Activity and Multi-Target Mechanism of Phenolic Schiff Bases Bearing Methanesulfonamide Fragments: Cell Cycle Analysis and a Molecular Modeling Study” (International Journal of Molecular Sciences, 2024):
Like-named read-outs stand apart in the source and are kept apart here.

Tests used:
HER2 = HER2 (Homo sapiens, UniProt P04626); test: HER2 tyrosine kinase inhibition assay (ADP-Glo)
SF-268 = test: NCI anticancer screening (SRB), CNS Cancer subpanel; type: cell-based, human; conditions: for GI%: 10.0 µM in one dose
HCT-15 = test: NCI anticancer screening (SRB), Colon Cancer subpanel; type: cell-based, human; conditions: for GI%: 10.0 µM in one dose
MALME-3M = test: NCI anticancer screening (SRB), Melanoma subpanel; type: cell-based, human; conditions: for GI%: 10.0 µM in one dose
Bax = test: Apoptotic markers assay, Bax expression in MCF-7 cells; type: cell-based, human; conditions: MCF-7 cells treated at IC50 concentrations; vs untreated control = 1
Experimental: We measured the apoptosis promoter Bax levels, the apoptosis inhibitor Bcl−2, and the apoptosis coordination enzymes caspase-8 and caspase-9 [32].
The apoptotic marker method was carried out using the reported procedure using MCF-7, the cancer cell line (Supplementary Materials). […]
(cells are Plated […]
in a density of 1.2-1.8 X 10,000 cells/well in a volume of 100 µL complete growth medium + 100 µL of the tested compound per well in a 96-well plate for 24/48 h before the enzyme assay).
8. Evaluation of Bax and Bcl-2 expressions m RNA isolation was carried out using an RNeasy extraction kit, up to 1 X 107 cells. They were disrupted in Buffer RLT and homogenized. Ethanol was added to the lysate to promote the selective binding of RNA to the RNeasy membrane. Then, the sample was applied to the RNeasy […]
Mini spin column. Total RNA bound to the membrane. High-quality RNA was eluted using […]
(1 picture or pasted object on this page, not shown here)

NCI-H23 = test: NCI anticancer screening (SRB), Non-Small Cell Lung Cancer subpanel; type: cell-based, human; conditions: for GI%: 10.0 µM in one dose
T-47D [1] = test: NCI anticancer screening (SRB), Breast Cancer subpanel; type: cell-based, human; conditions: for GI%: 10.0 µM in one dose
HL-60(TB) = test: NCI anticancer screening (SRB), Leukemia subpanel; type: cell-based, human; conditions: for GI%: 10.0 µM in one dose
SNB-19 = test: NCI anticancer screening (SRB), CNS Cancer subpanel; type: cell-based, human; conditions: for GI%: 10.0 µM in one dose
UO-31 = system: UO-31; set-up: method as in https://dtp.cancer.gov/dtpstandard/dwindex/index.jsp; conditions: ref https://dtp.cancer.gov/dtpstandard/dwindex/index.jsp; cited from earlier work
SK-OV-3 = system: SK-OV-3; set-up: method as in https://dtp.cancer.gov/dtpstandard/dwindex/index.jsp; conditions: ref https://dtp.cancer.gov/dtpstandard/dwindex/index.jsp; cited from earlier work
SK-MEL-28 = system: SK-MEL-28; set-up: method as in https://dtp.cancer.gov/dtpstandard/dwindex/index.jsp; conditions: ref https://dtp.cancer.gov/dtpstandard/dwindex/index.jsp; cited from earlier work
NCI-H460 = system: NCI-H460; set-up: method as in https://dtp.cancer.gov/dtpstandard/dwindex/index.jsp; conditions: ref https://dtp.cancer.gov/dtpstandard/dwindex/index.jsp; cited from earlier work
SF-295 = system: SF-295; set-up: method as in https://dtp.cancer.gov/dtpstandard/dwindex/index.jsp; conditions: ref https://dtp.cancer.gov/dtpstandard/dwindex/index.jsp; cited from earlier work
SR = system: SR; set-up: method as in https://dtp.cancer.gov/dtpstandard/dwindex/index.jsp; conditions: ref https://dtp.cancer.gov/dtpstandard/dwindex/index.jsp; cited from earlier work
[2] = system: Renal Cancer subpanel tumor cell lines; conditions: cited from earlier work; for GI50: read-out: GI50, subpanel average, ref https://dtp.cancer.gov/dtpstandard/dwindex/index.jsp; for TGI, subpanel average: ref https://dtp.cancer.gov/dtpstandard/dwindex/index.jsp; for CC50: read-out: LC50, subpanel average, ref https://dtp.cancer.gov/dtpstandard/dwindex/index.jsp
HCC-2998 = system: HCC-2998; set-up: method as in https://dtp.cancer.gov/dtpstandard/dwindex/index.jsp; conditions: ref https://dtp.cancer.gov/dtpstandard/dwindex/index.jsp; cited from earlier work
UACC-257 = system: UACC-257; set-up: method as in https://dtp.cancer.gov/dtpstandard/dwindex/index.jsp; conditions: ref https://dtp.cancer.gov/dtpstandard/dwindex/index.jsp; cited from earlier work
[3] = system: Melanoma subpanel tumor cell lines; conditions: cited from earlier work; for GI50: read-out: GI50, subpanel average, ref https://dtp.cancer.gov/dtpstandard/dwindex/index.jsp; for TGI, subpanel average: ref https://dtp.cancer.gov/dtpstandard/dwindex/index.jsp; for CC50: read-out: LC50, subpanel average, ref https://dtp.cancer.gov/dtpstandard/dwindex/index.jsp
[4] = system: CNS Cancer subpanel tumor cell lines; conditions: cited from earlier work; for GI50: read-out: GI50, subpanel average, ref https://dtp.cancer.gov/dtpstandard/dwindex/index.jsp; for TGI, subpanel average: ref https://dtp.cancer.gov/dtpstandard/dwindex/index.jsp; for CC50: read-out: LC50, subpanel average, ref https://dtp.cancer.gov/dtpstandard/dwindex/index.jsp
K-562 = system: K-562; set-up: method as in https://dtp.cancer.gov/dtpstandard/dwindex/index.jsp; conditions: ref https://dtp.cancer.gov/dtpstandard/dwindex/index.jsp; cited from earlier work
IGROV1 = system: IGROV1; set-up: method as in https://dtp.cancer.gov/dtpstandard/dwindex/index.jsp; conditions: ref https://dtp.cancer.gov/dtpstandard/dwindex/index.jsp; cited from earlier work
NCI-H522 = system: NCI-H522; set-up: method as in https://dtp.cancer.gov/dtpstandard/dwindex/index.jsp; conditions: ref https://dtp.cancer.gov/dtpstandard/dwindex/index.jsp; cited from earlier work
KM12 = system: KM12; set-up: method as in https://dtp.cancer.gov/dtpstandard/dwindex/index.jsp; conditions: ref https://dtp.cancer.gov/dtpstandard/dwindex/index.jsp; cited from earlier work
MDA-MB-468 = system: MDA-MB-468; set-up: method as in https://dtp.cancer.gov/dtpstandard/dwindex/index.jsp; conditions: ref https://dtp.cancer.gov/dtpstandard/dwindex/index.jsp; cited from earlier work
T-47D [5] = system: T-47D; set-up: method as in https://dtp.cancer.gov/dtpstandard/dwindex/index.jsp; conditions: ref https://dtp.cancer.gov/dtpstandard/dwindex/index.jsp; cited from earlier work
RXF 393 = system: RXF 393; set-up: method as in https://dtp.cancer.gov/dtpstandard/dwindex/index.jsp; conditions: ref https://dtp.cancer.gov/dtpstandard/dwindex/index.jsp; cited from earlier work
[6] = system: Breast Cancer subpanel tumor cell lines; conditions: cited from earlier work; for GI50: read-out: GI50, subpanel average, ref https://dtp.cancer.gov/dtpstandard/dwindex/index.jsp; for TGI, subpanel average: ref https://dtp.cancer.gov/dtpstandard/dwindex/index.jsp; for CC50: read-out: LC50, subpanel average, ref https://dtp.cancer.gov/dtpstandard/dwindex/index.jsp
786-0 = system: 786-0; set-up: method as in https://dtp.cancer.gov/dtpstandard/dwindex/index.jsp; conditions: ref https://dtp.cancer.gov/dtpstandard/dwindex/index.jsp; cited from earlier work
BT-549 = system: BT-549; set-up: method as in https://dtp.cancer.gov/dtpstandard/dwindex/index.jsp; conditions: ref https://dtp.cancer.gov/dtpstandard/dwindex/index.jsp; cited from earlier work
CAKI-1 = system: CAKI-1; set-up: method as in https://dtp.cancer.gov/dtpstandard/dwindex/index.jsp; conditions: ref https://dtp.cancer.gov/dtpstandard/dwindex/index.jsp; cited from earlier work
OVCAR-8 = system: OVCAR-8; set-up: method as in https://dtp.cancer.gov/dtpstandard/dwindex/index.jsp; conditions: ref https://dtp.cancer.gov/dtpstandard/dwindex/index.jsp; cited from earlier work
SNB-75 = system: SNB-75; set-up: method as in https://dtp.cancer.gov/dtpstandard/dwindex/index.jsp; conditions: ref https://dtp.cancer.gov/dtpstandard/dwindex/index.jsp; cited from earlier work
A498 = system: A498; set-up: method as in https://dtp.cancer.gov/dtpstandard/dwindex/index.jsp; conditions: ref https://dtp.cancer.gov/dtpstandard/dwindex/index.jsp; cited from earlier work
PC-3 = system: PC-3; set-up: method as in https://dtp.cancer.gov/dtpstandard/dwindex/index.jsp; conditions: ref https://dtp.cancer.gov/dtpstandard/dwindex/index.jsp; cited from earlier work
[7] = Homo sapiens, five concentrations

Sequence of HER2 (P04626 23-1255): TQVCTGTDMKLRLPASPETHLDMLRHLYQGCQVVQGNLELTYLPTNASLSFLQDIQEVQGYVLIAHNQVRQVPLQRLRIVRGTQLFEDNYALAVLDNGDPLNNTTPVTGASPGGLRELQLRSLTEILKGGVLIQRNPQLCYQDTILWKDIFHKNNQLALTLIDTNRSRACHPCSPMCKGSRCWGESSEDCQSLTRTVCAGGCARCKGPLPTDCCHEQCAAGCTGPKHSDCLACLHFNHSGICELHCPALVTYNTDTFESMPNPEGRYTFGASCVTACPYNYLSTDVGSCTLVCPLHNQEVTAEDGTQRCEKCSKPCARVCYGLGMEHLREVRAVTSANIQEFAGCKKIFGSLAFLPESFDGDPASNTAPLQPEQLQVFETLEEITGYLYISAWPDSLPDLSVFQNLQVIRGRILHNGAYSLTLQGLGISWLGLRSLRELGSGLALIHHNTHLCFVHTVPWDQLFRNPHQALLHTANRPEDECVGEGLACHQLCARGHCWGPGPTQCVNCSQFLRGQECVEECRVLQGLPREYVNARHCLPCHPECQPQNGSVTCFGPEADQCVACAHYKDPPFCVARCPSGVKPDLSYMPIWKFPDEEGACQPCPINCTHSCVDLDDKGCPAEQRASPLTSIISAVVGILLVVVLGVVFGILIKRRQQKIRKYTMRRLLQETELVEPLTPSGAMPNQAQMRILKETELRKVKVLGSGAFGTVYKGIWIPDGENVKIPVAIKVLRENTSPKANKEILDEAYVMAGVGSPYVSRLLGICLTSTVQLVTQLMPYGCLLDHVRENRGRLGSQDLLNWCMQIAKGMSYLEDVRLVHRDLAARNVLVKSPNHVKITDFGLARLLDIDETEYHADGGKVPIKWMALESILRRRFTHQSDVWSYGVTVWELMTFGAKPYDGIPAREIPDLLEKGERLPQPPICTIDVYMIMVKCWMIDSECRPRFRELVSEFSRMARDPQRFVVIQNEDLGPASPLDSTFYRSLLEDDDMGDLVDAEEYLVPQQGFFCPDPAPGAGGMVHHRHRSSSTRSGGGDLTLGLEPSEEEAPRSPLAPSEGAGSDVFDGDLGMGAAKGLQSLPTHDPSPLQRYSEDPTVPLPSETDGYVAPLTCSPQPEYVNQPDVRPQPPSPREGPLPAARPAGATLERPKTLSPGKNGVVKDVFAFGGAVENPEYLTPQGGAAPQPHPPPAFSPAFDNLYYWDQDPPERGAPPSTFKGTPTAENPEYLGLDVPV

SMILES	GI50 (UO-31)	GI50 (SK-OV-3)	GI50 (SK-MEL-28)	GI50 (NCI-H460)	GI50 (SF-295)	GI50 (SR)	GI50 [2]	TGI, subpanel average [2]	GI50 (HCC-2998)	GI50 (UACC-257)	GI50 [3]	TGI, subpanel average [3]	GI50 [4]	TGI, subpanel average [4]	GI50 (K-562)	GI50 (IGROV1)	GI50 (RXF 393)	TGI, subpanel average [6]	GI50 (786-0)	GI50 (BT-549)	also measured
CCN(CC)c1ccc(C=NNC(=O)c2ccc(NS(C)(=O)=O)cc2)c(O)c1 [Compound 8]																					IC50 (HER2): 0.464 ± 0.018 µM; GI% (SF-268): 77%; GI50 (SF-268; [7]): 0.252 µM; GI% (HCT-15): 80%; GI50 (HCT-15; [7]): 0.358 µM; GI% (MALME-3M): 96%; GI50 (MALME-3M; [7]): 0.855 µM; Bax, Gene Expression (Fold Change) (Bax): 5.456 fold change; GI% (NCI-H23): 77%; GI50 (NCI-H23; [7]): 1.16 µM; GI% (T-47D [1]): 74%; GI50 (T-47D [1]; Homo sapiens, T47D, five concentrations): 0.382 µM; GI% (HL-60(TB)): 99%; GI50 (HL-60(TB); [7]): 0.3 µM; GI% (SNB-19): 65%; GI50 (SNB-19; [7]): 0.831 µM
CS(=O)(=O)Nc1ccc(C(=O)NN=Cc2ccccc2O)cc1 [Compound 7]																					IC50 (HER2): 0.183 ± 0.011 µM; GI% (SF-268): 48%; GI% (HCT-15): 67%; GI% (MALME-3M): 24%; Bax, Gene Expression (Fold Change) (Bax): 5.02 fold change; GI% (NCI-H23): 27%; GI% (T-47D [1]): 18%; GI% (HL-60(TB)): 22%; GI% (SNB-19): 32%
COc1cc2ncnc(Nc3ccc(F)c(Cl)c3)c2cc1OCCCN1CCOCC1 [Gefitinib, gefitinib]	1.58 µM	1 µM	3.16 µM	3.16 µM	10 µM	3.16 µM	1.41 µM	12.50 µM	2.51 µM	2.51 µM	3.68 µM	12.49 µM	5.64 µM	19.62 µM	2.51 µM	3.16 µM	3.16 µM	18.62 µM	3.16 µM	3.16 µM	GI50 (NCI-H522): 1 µM; GI50 (KM12): 10 µM; GI50 (MDA-MB-468): 0.0126 µM; GI50 (T-47D [5]): 7.94 µM; GI50 [6]: 4.67 µM
C#Cc1cccc(Nc2ncnc3cc(OCCOC)c(OCCOC)cc23)c1 [Erlotinib, erlotinib]	1 µM	0.5 µM	50.1 µM	6.31 µM	15.8 µM	10 µM	2.46 µM	42.59 µM	79.4 µM	100 µM	23.7 µM	77.89 µM	17 µM	82.11 µM	31.6 µM	0.316 µM	3.98 µM	70.53 µM	10 µM	31.6 µM	GI50 (CAKI-1): 0.199 µM; GI50 (OVCAR-8): 7.94 µM; GI50 (SNB-75): 12.6 µM; CC50 [2]: 89.2 µM; CC50 [3]: 93.3 µM; CC50 [4]: > 100 µM; GI50 (NCI-H522): 1 µM; GI50 (KM12): 79.4 µM; GI50 (MDA-MB-468): 0.126 µM; GI50 (T-47D [5]): 3.98 µM; GI50 (A498): 2.51 µM; GI50 (PC-3): 39.8 µM; GI50 [6]: 24.7 µM; CC50 [6]: 96.4 µM
CNC(=O)c1cc(Oc2ccc(NC(=O)Nc3ccc(Cl)c(C(F)(F)F)c3)cc2)ccn1 [Sorafenib, sorafenib]	2.51 µM	2.51 µM	2.51 µM	2.51 µM		3.16 µM	2.86 µM	10.86 µM	3.16 µM	1.99 µM	1.87 µM	6.29 µM	2.33 µM	7.64 µM	3.16 µM	2.51 µM	2.51 µM	9.35 µM	3.16 µM	3.16 µM	GI50 (CAKI-1): 3.16 µM; GI50 (OVCAR-8): 3.16 µM; GI50 (SNB-75): 3.16 µM; CC50 [2]: 54.8 µM; CC50 [3]: 28.6 µM; CC50 [4]: 27.8 µM; GI50 (NCI-H522): 1.99 µM; GI50 (MDA-MB-468): 1.99 µM; GI50 (A498): 2.51 µM; GI50 (PC-3): 1.99 µM; CC50 [6]: 57.3 µM
Cc1ccc(-c2cc(C(F)(F)F)nn2-c2ccc(S(N)(=O)=O)cc2)cc1 [Celecoxib, celecoxib]	15.8 µM	19.9 µM	15.8 µM	15.8 µM	15.8 µM	15.8 µM	19.9 µM	41.19 µM	15.8 µM	19.9 µM	22.5 µM	38.49 µM	17.2 µM	31.62 µM	10 µM	15.8 µM	15.8 µM	34.89 µM	39.8 µM	19.9 µM	GI50 (CAKI-1): 19.9 µM; GI50 (OVCAR-8): 19.9 µM; GI50 (SNB-75): 15.8 µM; CC50 [2]: 61.2 µM; CC50 [3]: 64.3 µM; CC50 [4]: 58.8 µM; GI50 (KM12): 15.8 µM; GI50 (T-47D [5]): 15.8 µM; GI50 (A498): 15.8 µM; GI50 (PC-3): 12.6 µM; GI50 [6]: 17.5 µM
